Consider 3 compounds from patent US20220144847A1, “HETEROCYCLIC COMPOUND, PHARMACEUTICAL COMPOSITION COMPRISING SAME, PREPARATION METHOD THEREFOR, AND USE THEREOF” (Sichuan Kelun-Biotech Biopharmaceutical Co., Ltd., priority 2019, published 2022).

Holding throughout (type): biochemical
In one test the target is RET-WT (Homo sapiens, UniProt P07949). The experiment in a line: RET inhibition experiment (HTRF KinEASE-TK kit), wild-type RET enzyme. The conditions noted are these: read-out: The IC50 (nM) for inhibiting RET-WT. The protocol: (§1) Experimental method: […] After incubation at room temperature for 40 min, TK antibody-cryptate and streptavidin-XL665 were added, and the test was performed after incubation at room temperature for 45 min. With the solvent group (DMSO) as the negative control and the buffer group (without RET enzyme) as the blank control, the relative inhibitory activity percentages (i.e., inhibition rates) of different concentrations of the compounds were computed as per the following formula: […] The relative inhibitory activity percentages of different concentrations of the compounds were plotted with respect to the compound concentrations, and the curve was fitted according to a four-parameter model to compute the IC50 value as per the following formula: y=min+(max-min)/(1+(x/IC50)^(-Hillslope)) where y is the relative inhibitory activity percentage, max is the maximum value of the fitted curve, min is the minimum value of the fitted curve, x is the logarithmic concentration of the compound, and Hillslope is the slope of the curve.

The next test deals with RET-M918T (Homo sapiens, UniProt P07949, M918T). The experiment in a line: RET inhibition experiment (HTRF KinEASE-TK kit), mutant RET-M918T. The conditions noted are these: read-out: The IC50 (nM) for inhibiting the enzyme RET-M918T. The protocol:
as §1

Another test concerns the target RET-V804M (Homo sapiens, UniProt P07949, V804M). The experiment in a line: RET inhibition experiment (HTRF KinEASE-TK kit), mutant RET-V804M. The note with it: read-out: The IC50 (nM) for inhibiting V804M. The essentials:
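Enzyme was pre-incubated with compound at room temperature for 30 min, then substrate and ATP were added for a 40 min reaction. HTRF signal was read after 45 min with TK antibody-cryptate and streptavidin-XL665. IC50 came from a four-parameter fit of percent inhibition against DMSO and no-enzyme controls.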
A general note: In TR-FRET formats the signal depends on donor and acceptor labels being close together.

A further test deals with VEGFR2 (Homo sapiens, UniProt P35968). The experiment in a line: VEGFR2 inhibition experiment (HTRF KinEASE-TK kit). The conditions noted are these: read-out: Inhibition rate on VEGFR2; for inhibition at 0.1 µM: 100 nM. The essentials: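 HTRF KinEASE-TK format: enzyme and compound were preincubated 30 min at room temperature, then substrate and ATP added for 40 min, followed by cryptate antibody/streptavidin-XL665 detection for 45 min. Inhibition was normalised to DMSO and no-enzyme controls; IC50 from a four-parameter fit.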

The next test has as its target T1, RET-CCDC6 (Homo sapiens, UniProt P07949).
T1 construct: CCDC6 fusion partner (Q16204 for human); the other entry of the earlier key: CCDC6 (Q16204, Coiled-coil domain-containing protein 6)
T1 sequence (P07949 with tags, fused parts or gaps): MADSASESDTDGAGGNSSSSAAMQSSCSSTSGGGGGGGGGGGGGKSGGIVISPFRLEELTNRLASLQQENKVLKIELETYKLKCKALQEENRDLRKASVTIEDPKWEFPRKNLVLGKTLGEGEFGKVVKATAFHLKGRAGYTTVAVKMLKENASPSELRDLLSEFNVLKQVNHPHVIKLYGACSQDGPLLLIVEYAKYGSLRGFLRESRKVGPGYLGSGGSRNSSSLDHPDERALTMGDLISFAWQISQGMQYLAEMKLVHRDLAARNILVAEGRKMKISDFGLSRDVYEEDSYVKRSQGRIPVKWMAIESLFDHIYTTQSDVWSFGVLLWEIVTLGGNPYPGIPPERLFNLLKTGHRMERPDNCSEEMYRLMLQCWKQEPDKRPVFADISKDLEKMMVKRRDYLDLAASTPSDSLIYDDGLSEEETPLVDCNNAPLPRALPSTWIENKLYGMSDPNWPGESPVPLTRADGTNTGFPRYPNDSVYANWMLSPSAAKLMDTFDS
The test can be described thus: RET inhibition experiment (HTRF KinEASE-TK kit), fusion-type RET enzyme. The conditions noted are these: read-out: The IC50 (nM) for inhibiting RET-CCDC6. As to the method:
as §1

A further test concerns the target RET-V804L (Homo sapiens, UniProt P07949, V804L). The experiment in a line: RET inhibition experiment (HTRF KinEASE-TK kit), mutant RET-V804L. The note with it: read-out: The IC50 (nM) for inhibiting RET-V804L. The protocol: as §1

Usually IC50 stands for the concentration needed to halve the response being measured. In general, inhibition refers to how much of the control response was suppressed.

Chain of VEGFR2 (P35968 20-1356, species assumed): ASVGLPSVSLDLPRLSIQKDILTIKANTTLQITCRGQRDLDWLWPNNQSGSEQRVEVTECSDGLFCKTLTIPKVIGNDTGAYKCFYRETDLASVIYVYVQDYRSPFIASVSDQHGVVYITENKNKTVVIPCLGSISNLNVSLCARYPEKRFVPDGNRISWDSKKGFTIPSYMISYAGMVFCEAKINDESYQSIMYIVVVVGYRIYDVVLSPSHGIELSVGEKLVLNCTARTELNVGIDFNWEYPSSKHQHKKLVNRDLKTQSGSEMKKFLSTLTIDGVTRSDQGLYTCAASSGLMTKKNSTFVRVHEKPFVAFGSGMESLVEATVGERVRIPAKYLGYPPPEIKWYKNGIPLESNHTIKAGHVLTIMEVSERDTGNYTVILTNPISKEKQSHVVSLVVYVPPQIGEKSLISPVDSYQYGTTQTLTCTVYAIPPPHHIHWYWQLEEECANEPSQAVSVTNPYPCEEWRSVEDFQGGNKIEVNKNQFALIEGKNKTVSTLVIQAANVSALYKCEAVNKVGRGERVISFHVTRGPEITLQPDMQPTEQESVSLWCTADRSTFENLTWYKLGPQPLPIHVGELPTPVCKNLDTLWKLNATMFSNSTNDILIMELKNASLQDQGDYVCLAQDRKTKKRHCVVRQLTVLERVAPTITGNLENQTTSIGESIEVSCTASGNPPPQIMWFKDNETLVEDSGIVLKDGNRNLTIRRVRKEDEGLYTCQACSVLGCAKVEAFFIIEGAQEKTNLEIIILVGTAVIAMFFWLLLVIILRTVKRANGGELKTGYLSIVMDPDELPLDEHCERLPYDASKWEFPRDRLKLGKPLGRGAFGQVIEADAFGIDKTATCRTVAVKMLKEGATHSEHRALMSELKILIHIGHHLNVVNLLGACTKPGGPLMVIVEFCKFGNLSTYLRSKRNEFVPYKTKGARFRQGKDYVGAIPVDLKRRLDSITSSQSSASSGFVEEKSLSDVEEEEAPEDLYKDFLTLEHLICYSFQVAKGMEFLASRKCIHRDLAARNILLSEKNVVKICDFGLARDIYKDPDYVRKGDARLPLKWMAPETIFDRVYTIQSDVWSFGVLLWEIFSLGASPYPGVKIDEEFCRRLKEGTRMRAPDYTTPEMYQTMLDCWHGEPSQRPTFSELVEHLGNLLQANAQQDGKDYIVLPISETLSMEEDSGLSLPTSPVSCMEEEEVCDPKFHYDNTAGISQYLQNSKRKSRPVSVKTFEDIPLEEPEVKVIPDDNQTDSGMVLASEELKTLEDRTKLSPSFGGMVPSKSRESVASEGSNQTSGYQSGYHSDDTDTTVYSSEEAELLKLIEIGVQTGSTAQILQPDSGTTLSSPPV
Chain of RET-V804L (P07949 29-1114 V804L): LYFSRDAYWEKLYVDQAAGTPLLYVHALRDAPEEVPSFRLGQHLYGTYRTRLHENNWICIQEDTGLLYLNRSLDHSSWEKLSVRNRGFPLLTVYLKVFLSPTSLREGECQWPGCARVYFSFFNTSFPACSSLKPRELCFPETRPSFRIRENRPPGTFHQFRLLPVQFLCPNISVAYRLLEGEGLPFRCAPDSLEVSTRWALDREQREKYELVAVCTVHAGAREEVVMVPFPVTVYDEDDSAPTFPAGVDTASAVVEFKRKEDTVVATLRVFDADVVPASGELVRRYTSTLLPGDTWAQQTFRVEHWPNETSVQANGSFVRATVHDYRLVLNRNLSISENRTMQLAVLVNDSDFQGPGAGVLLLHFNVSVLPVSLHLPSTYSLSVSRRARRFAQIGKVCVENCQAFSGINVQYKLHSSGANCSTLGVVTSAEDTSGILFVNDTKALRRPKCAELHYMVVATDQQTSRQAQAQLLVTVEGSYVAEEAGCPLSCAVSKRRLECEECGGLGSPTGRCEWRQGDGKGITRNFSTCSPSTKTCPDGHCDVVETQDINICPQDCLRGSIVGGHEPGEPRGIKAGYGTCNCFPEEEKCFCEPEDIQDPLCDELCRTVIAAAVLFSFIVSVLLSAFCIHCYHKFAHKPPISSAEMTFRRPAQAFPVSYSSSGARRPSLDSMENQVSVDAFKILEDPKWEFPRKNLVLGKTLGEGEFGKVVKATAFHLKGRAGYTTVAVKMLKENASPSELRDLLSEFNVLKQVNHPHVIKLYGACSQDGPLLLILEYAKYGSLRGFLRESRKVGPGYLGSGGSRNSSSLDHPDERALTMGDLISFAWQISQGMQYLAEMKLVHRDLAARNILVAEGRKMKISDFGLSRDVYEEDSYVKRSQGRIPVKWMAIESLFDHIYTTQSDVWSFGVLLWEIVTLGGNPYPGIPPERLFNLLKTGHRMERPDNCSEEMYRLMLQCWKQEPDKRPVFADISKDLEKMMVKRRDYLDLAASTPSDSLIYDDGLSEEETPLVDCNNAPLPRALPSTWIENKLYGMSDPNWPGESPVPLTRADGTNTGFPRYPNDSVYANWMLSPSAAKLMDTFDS
Chain of RET-V804M (P07949 29-1114 V804M): as the sequence (P07949 29-1114 V804L) above, with L776M counted along it
Chain of RET-WT (P07949 29-1114): as the sequence (P07949 29-1114 V804L) above, with L776V counted along it
Chain of RET-M918T (P07949 29-1114 M918T): as the sequence (P07949 29-1114 V804L) above, with L776V, M890T counted along it

Regarding `Cc1cc(Nc2cc(C)[nH]n2)nc(-c2ccc(N3CC4CC(C3)N4Cc3ccc(-n4cccn4)nc3)nc2)n1` [Compound 60, 2-(6-(6-((6-(1H-pyrazol-1-yl)pyridin-3-yl)methyl)-3,6-diazabicyclo[3.1.1]heptan-3-yl)pyridin-3-yl)-6-methyl-N-(5-methyl-1H-pyrazol-3-yl)pyrimidin-4-amine], the 50% inhibitory concentration (IC50) turned out to be 2.7 ± 0.69 nM at RET-WT; 1.29 ± 0.27 nM on RET-M918T; 3.77 ± 0.52 nM at RET-V804M; 3.99 ± 0.79 nM on RET-CCDC6; 5.07 ± 0.4 nM at RET-V804L. In addition, the inhibition at 0.1 µM on VEGFR2 was 65%.

For `Cc1cc(Nc2cc(C)[nH]n2)nc(-c2ccc(N3CC4CC(C3)N4Cc3ccc(-n4ccc(C5CC5)n4)nc3)nc2)n1` [Compound 120, 2-(6-(6-((6-(3-cyclopropyl-1H-pyrazol-1-yl)pyridin-3-yl)methyl)-3,6-diazabicyclo[3.1.1]heptan-3-yl)pyridin-3-yl)-6-methyl-N-(5-methyl-1H-pyrazol-3-yl)pyrimidin-4-amine], the concentration for half-maximal inhibition (IC50) is 7.33 ± 1.19 nM on RET-WT; 15.8 ± 3.65 nM on RET-M918T; 9.12 ± 1.85 nM at RET-V804M; 18.7 ± 7.27 nM at RET-CCDC6; 10.1 ± 1.05 nM on RET-V804L. Also, the inhibition at 0.1 µM at VEGFR2 was found to be 28%.

For the compound `Cc1cc(Nc2cc(C)[nH]n2)nc(-c2ccc(N3CC4CC(C3)N4Cc3ccc(-n4ncc(F)c4C)nc3)nc2)n1` [Compound 122, 2-(6-(6-((6-(4-fluoro-5-methyl-1H-pyrazol-1-yl)pyridin-3-yl)methyl)-3,6-diazabicyclo[3.1.1]heptan-3-yl)pyridin-3-yl)-6-methyl-N-(5-methyl-1H-pyrazol-3-yl)pyrimidin-4-amine], the 50% inhibitory concentration (IC50) on RET-WT came out at 2.35 ± 0.24 nM; on RET-M918T, 4.03 ± 0.66 nM; on RET-V804M it was 3.33 ± 0.75 nM; at RET-CCDC6, 2.91 ± 0.41 nM; on RET-V804L, 4.79 ± 1.68 nM. For the same compound, the inhibition at 0.3 µM at VEGFR2 (300 nM) was determined as 67%.
